# Test results: US11466044B2 (WAYNE STATE UNIVERSITY, priority 2017, dated 2022)
# Read-outs that look alike come from different tables or passages of the source.
# Experiments:
# [1] = tested on: A1555G mutant mitochondrial ribosome (human chimeric); test: in-vitro translation assay, human chimeric ribosomes, A1555G mutant mitochondrial decoding site; assay type: biochemical; details: human mitochondrial decoding site with A1555G point mutation; read-out: IC50 Mitoch. A1555G
# Excerpt: (§1) The antiribosomal activity of these compounds was investigated with cell-free translation assays using both wild type bacterial ribosomes and hybrid ribosomes carrying eukaryotic decoding A sites enabling the prediction of selectivity.
# M. abscessus = test: MIC by broth microdilution, M. abscessus; assay type: cell-based
# M. smegmatis SZ380 = test: MIC by broth microdilution, M. smegmatis
# E coli wild type = test: MIC by broth microdilution, wild type E coli; assay type: cell-based
# [2] = tested on: wild type bacterial ribosomes; test: in-vitro translation assay, bacterial ribosomes; assay type: biochemical
# Excerpt: as §1
# [3] = tested on: E coli carrying specific resistance determinants; test: MIC by broth microdilution, E coli carrying specific resistance determinants; assay type: cell-based
compound,measurement,setting,value
"NC[C@@H]1O[C@H](O[C@H]2[C@@H](O)[C@H](O[C@@H]3[C@@H](O)[C@H](N)C[C@H](N)[C@H]3O[C@H]3O[C@H](CN)[C@@H](O)[C@H](O)[C@H]3N)O[C@@H]2CO)[C@H](N)[C@@H](O)[C@@H]1O [neomycin, Neomycin B, reference compound]",IC50,[1],400 nM
same,MIC M. abscessus ATCC 19977 WT,"M. abscessus; ATCC 19977 WT, Table 5 (Example 3)",16 µg/mL
same,MIC M. abscessus ATCC,"M. abscessus; ATCC, Table 4 (Example 3)",16 µg/mL
same,MIC M. abscessus Clin. Isol.,"M. abscessus; Clin. Isol., Table 4 (Example 3)",16 µg/mL
same,MIC M. abscessus clinical isolate,"M. abscessus; clinical isolate, Table 5 (Example 3)",16 µg/mL
same,MIC M. abscessus engineered Δeis2,"M. abscessus; engineered Δeis2, Table 5 (Example 3)",4 µg/mL
same,MIC M. smegmatis SZ380 WT,"M. smegmatis SZ380; SZ380 WT, Table 5 (Example 3)",0.5 µg/mL
same,MIC SZ380 M. smegmatis,M. smegmatis SZ380; strain SZ380 Mycobacterium smegmatis,0.5 µg/mL
same,MIC E coli AG006 Wild type,"E coli wild type; AG006 Wild type, Table 2 (Example 3)",0.25 to 0.5 µg/mL
same,MIC E coli AG104 Wild type,"E coli wild type; AG104 Wild type, Table 2 (Example 3)",0.5 to 1 µg/mL
same,MIC50 E coli BM13 (AG06) wt,"E coli wild type; BM13 (AG06) wt, Table 2A (Example 2)",1 µg/mL
same,MIC pH430 WT,"E coli wild type; E. coli strain pH430, WT",1 μg/ml
same,MIC WT,E coli wild type; Table 3 (Example 1),1 µg/mL
same,MIC WT,E coli wild type; Table 3 (Example 2),1 µg/mL
same,MIC E. coli WT,E coli wild type; Table 4 (Example 3),1 µg/mL
same,MIC E. coli WT,E coli wild type; Table 5 (Example 3),0.5 to 1 µg/mL
same,MIC AG001 E. coli WT,"E coli wild type; clinical isolate AG001, WT",1 µg/mL
same,MIC E coli AG001,"E coli wild type; clinical isolate AG001, Table 1 (Example 3)",4 µg/mL
same,MIC E coli AG003,"E coli wild type; clinical isolate AG003, Table 1 (Example 3)",1 µg/mL
same,MIC AG055 E. coli WT,"E coli wild type; clinical isolate AG055, WT",1 µg/mL
same,MIC E coli AG055,"E coli wild type; clinical isolate AG055, Table 1 (Example 3)",1 µg/mL
same,MIC AG160 E. coli WT,"E coli wild type; clinical isolate AG160 WT, Table 2 (Example 4)",1 µg/mL
same,MIC pH430 E. coli WT,"E coli wild type; engineered strain pH430 WT, Table 2 (Example 4)",1 μg/ml
same,MIC50 E coli pH430 WT,"E coli wild type; pH430 WT, Table 2B (Example 2)",1 μg/ml
same,MIC50 E coli AG01,"E coli wild type; strain AG01, Table 1 (Example 2)",2 µg/mL
same,MIC50 E coli AG03,"E coli wild type; strain AG03, Table 1 (Example 2)",1 µg/mL
same,MIC50 E coli AG55,"E coli wild type; strain AG55, Table 1 (Example 2)",1 to 2 µg/mL
same,MIC AG212 E. coli,E coli wild type; strain AG212 E. coli (ATCC25922),0.5 to 1 µg/mL
same,IC50,"[2]; Mycobacterium smegmatis ribosomes, read-out: IC50 Bacterial",40 nM
same,IC50,"[2]; bacterial ribosome, Table 3 (Example 1), read-out: IC50 Bac",40 nM
same,IC50,"[2]; bacterial ribosome, Table 3 (Example 2), read-out: IC50 Bac",40 nM
same,IC50,"[2]; bacterial ribosome, Table 4 (Example 3), read-out: IC50 Bac",40 nM
same,MIC E. coli AAC(2′) AG106,"[3]; AAC(2′) AG106, Table 4 (Example 3)",8 µg/mL
same,MIC E. coli AAC(2′) pH434,"[3]; AAC(2′) pH434, Table 4 (Example 3)",>64 μg/mL
same,MIC AAC(6′),"[3]; AAC(6′), Table 3 (Example 2)",4 µg/mL
same,MIC50 E coli AG07 AAC(3),"[3]; AG07 AAC(3), Table 2A (Example 2)",4 µg/mL
same,MIC50 E coli AG09 AAC(6′),"[3]; AG09 AAC(6′), Table 2A (Example 2)",8 µg/mL
same,"MIC50 E coli AG036 ANT(4′,4″)",[3]; Table 2A (Example 2),32 µg/mL
same,"MIC50 E coli AG036 ANT(4′,4″)",[3]; Table 2B (Example 2),4 to 8 µg/mL
same,MIC50 E coli AG037 APH(3′)-III,"[3]; AG037 APH(3′)-III, Table 2B (Example 2)",>64 µg/mL
same,"MIC50 E coli AG037 APH(3′,5″)","[3]; AG037 APH(3′,5″), Table 2A (Example 2)",>256 µg/mL
same,MIC50 E coli AG103 armA,"[3]; AG103 ArmA, Table 2A (Example 2)",0.5 µg/mL
same,MIC50 E coli AG103 armA,"[3]; AG103 armA, Table 2B (Example 2)",0.25 to 0.5 µg/mL
same,MIC50 E coli AG105 AAC(2′),"[3]; AG105 AAC(2′), Table 2A (Example 2)",2 µg/mL
same,MIC E. coli AG106 AAC(2′)-Ia,"[3]; AG106 AAC(2′)-Ia, Table 5 (Example 3)",8 µg/mL
same,MIC E coli AG106 AAC(2′),"[3]; AG106 AAC(2′), Table 2 (Example 3)",8 µg/mL
same,MIC ANT(4′),"[3]; ANT(4′), Table 3 (Example 2)",4 to 8 µg/mL
same,MIC APH(3)-VI,"[3]; APH(3)-VI, Table 3 (Example 1)",32 to 64 µg/mL
same,MIC APH(3′)-I,"[3]; APH(3′)-I, Table 3 (Example 1)",>64 µg/mL
same,MIC APH(3′)-II,[3]; Table 3 (Example 1),64 µg/mL
same,MIC APH(3′)-II,[3]; Table 3 (Example 2),64 µg/mL
same,MIC APH(3′)-III,"[3]; APH(3′)-III, Table 3 (Example 1)",>64 µg/mL
same,MIC APH(3′)-VI,"[3]; APH(3′)-VI, Table 3 (Example 2)",32 to 64 µg/mL
same,"MIC AG036 ANT(4′,4′′)","[3]; E. coli strain AG036, ANT(4′,4′′)",4 to 8 µg/mL
